Experimental data taken from the CheMixHub viscosity set.
± gives the uncertainty stated by the source.

Assay: xn = mol fraction of the nth substance listed

CCCOCC(C)O (centres undefined) + CCN(CC)CC
viscosity [mPa·s], 100 kPa
Conditions	298.15 K	303.15 K	308.15 K
x1 = 0.0502	0.4177 ± 0.15	0.3933 ± 0.15	0.3699 ± 0.15
x1 = 0.1001	0.4846 ± 0.15	0.4496 ± 0.15	0.4206 ± 0.15
x1 = 0.1501	0.5523 ± 0.15	0.5096 ± 0.15	0.476 ± 0.15
x1 = 0.2016	0.6258 ± 0.15	0.5726 ± 0.15	0.5332 ± 0.15
x1 = 0.3	0.7805 ± 0.15	0.7042 ± 0.15	0.6523 ± 0.15
x1 = 0.4	0.9537 ± 0.15	0.8515 ± 0.15	0.7863 ± 0.15
x1 = 0.5	1.153 ± 0.15	1.017 ± 0.15	0.9326 ± 0.15
x1 = 0.5998	1.382 ± 0.15	1.207 ± 0.15	1.102 ± 0.15
x1 = 0.6999	1.625 ± 0.15	1.406 ± 0.15	1.281 ± 0.15
x1 = 0.7996	1.887 ± 0.15	1.629 ± 0.15	1.474 ± 0.15
x1 = 0.8998	2.169 ± 0.15	1.87 ± 0.15	1.682 ± 0.15
x1 = 0.9499	2.304 ± 0.15	1.973 ± 0.15	1.775 ± 0.15

C1COCO1 + CCCCOCCO
298.15 K, 101 kPa
Conditions	viscosity [mPa·s]
x1 = 0.1506	2.2 ± 0.017
x1 = 0.2851	1.773 ± 0.013
x1 = 0.4061	1.465 ± 0.011
x1 = 0.5154	1.229 ± 0.0097
x1 = 0.6147	1.053 ± 0.0085
x1 = 0.7053	0.9156 ± 0.0075
x1 = 0.7882	0.8012 ± 0.0067
x1 = 0.8645	0.7116 ± 0.006
x1 = 0.9349	0.6419 ± 0.0055

Cc1cccc(C)n1 + CCO
298.15 K, 101 kPa
Conditions	viscosity [mPa·s]
x1 = 0.0454	1.15 ± 0.019
x1 = 0.09639	1.164 ± 0.019
x1 = 0.2211	1.202 ± 0.02
x1 = 0.3891	1.133 ± 0.019
x1 = 0.6241	1.02 ± 0.017
x1 = 0.8038	0.9686 ± 0.016

CCCCCCCCC + CCCCCCC
298.15 K, 101.33 kPa
Conditions	viscosity [mPa·s]
x2 = 0.1102	0.6128 ± 0.0084
x2 = 0.2046	0.5921 ± 0.0081
x2 = 0.3052	0.562 ± 0.0078
x2 = 0.407	0.5372 ± 0.0075
x2 = 0.5092	0.5104 ± 0.0072
x2 = 0.6073	0.4838 ± 0.0069
x2 = 0.7071	0.4588 ± 0.0066
x2 = 0.8027	0.4312 ± 0.0063
x2 = 0.8996	0.4081 ± 0.0061

C1COCO1 + CO
303.15 K, 101 kPa
Conditions	viscosity [mPa·s]
x1 = 0.04585	0.5056 ± 0.02
x1 = 0.09758	0.5088 ± 0.02
x1 = 0.1564	0.516 ± 0.02
x1 = 0.2238	0.5272 ± 0.02
x1 = 0.3019	0.5382 ± 0.02
x1 = 0.3935	0.5516 ± 0.02
x1 = 0.5023	0.5642 ± 0.02
x1 = 0.6337	0.5454 ± 0.02
x1 = 0.7956	0.5446 ± 0.02

CCCOCC(C)O (centres undefined) + CCNCC
viscosity [mPa·s], 100 kPa
Conditions	298.15 K	303.15 K	308.15 K
x1 = 0.0509	0.3488 ± 0.15	0.3318 ± 0.15	0.3107 ± 0.15
x1 = 0.1002	0.3949 ± 0.15	0.3733 ± 0.15	0.3489 ± 0.15
x1 = 0.1505	0.4552 ± 0.15	0.4261 ± 0.15	0.4014 ± 0.15
x1 = 0.2	0.519 ± 0.15	0.4819 ± 0.15	0.4542 ± 0.15
x1 = 0.3003	0.6838 ± 0.15	0.6321 ± 0.15	0.5992 ± 0.15
x1 = 0.4	0.8976 ± 0.15	0.8055 ± 0.15	0.7606 ± 0.15
x1 = 0.5002	1.171 ± 0.15	1.034 ± 0.15	0.9506 ± 0.15
x1 = 0.5999	1.436 ± 0.15	1.264 ± 0.15	1.15 ± 0.15
x1 = 0.7	1.742 ± 0.15	1.514 ± 0.15	1.365 ± 0.15
x1 = 0.7982	2.014 ± 0.15	1.738 ± 0.15	1.562 ± 0.15
x1 = 0.9	2.265 ± 0.15	1.94 ± 0.15	1.739 ± 0.15
x1 = 0.9496	2.361 ± 0.15	2.021 ± 0.15	1.814 ± 0.15

CCC(C)C(C)C (centres undefined) + COC(C)(C)C
298.15 K, 101.33 kPa
Conditions	viscosity [mPa·s]
x2 = 0.0983	0.3824 ± 0.0037
x2 = 0.1999	0.3758 ± 0.0037
x2 = 0.2986	0.3693 ± 0.0037
x2 = 0.3972	0.363 ± 0.0037
x2 = 0.4975	0.3572 ± 0.0037
x2 = 0.5979	0.3519 ± 0.0037
x2 = 0.7006	0.3469 ± 0.0037
x2 = 0.797	0.3423 ± 0.0037
x2 = 0.8949	0.3387 ± 0.0037

C1COCO1 + CC#N
viscosity [mPa·s], 101 kPa
Conditions	x2 = 0.167	x2 = 0.3109	x2 = 0.4361	x2 = 0.5461	x2 = 0.6435	x2 = 0.7302	x2 = 0.8081	x2 = 0.8783	x2 = 0.942
298.15 K	0.5233 ± 0.014	0.4737 ± 0.012	0.436 ± 0.011	0.4046 ± 0.01	0.3783 ± 0.0099	0.3591 ± 0.0094	0.3444 ± 0.009	0.338 ± 0.0088	0.3366 ± 0.0088
308.15 K	0.4618 ± 0.012	0.4235 ± 0.011	0.3913 ± 0.01	0.3646 ± 0.0095	0.3419 ± 0.0089	0.3251 ± 0.0085	0.3134 ± 0.0082	0.3077 ± 0.0081	0.307 ± 0.0081
318.15 K	0.4132 ± 0.011	0.3791 ± 0.0099	0.3502 ± 0.0092	0.3263 ± 0.0085	0.3065 ± 0.008	0.291 ± 0.0076	0.2817 ± 0.0074	0.278 ± 0.0073	0.2797 ± 0.0074

CCCCCCCCC + CC(C)CC(C)(C)C
298.15 K, 101 kPa
Conditions	viscosity [mPa·s]
x2 = 0.07718	0.6409 ± 0.0064
x2 = 0.2128	0.6118 ± 0.0061
x2 = 0.3294	0.5969 ± 0.006
x2 = 0.4097	0.5806 ± 0.0058
x2 = 0.5252	0.5564 ± 0.0056
x2 = 0.6958	0.5351 ± 0.0054
x2 = 0.7143	0.5219 ± 0.0052
x2 = 0.8186	0.5071 ± 0.0051
x2 = 0.8823	0.4985 ± 0.005
x2 = 0.9211	0.4877 ± 0.0049
x2 = 0.9661	0.4829 ± 0.0049

CC(=O)c1ccccc1 + CCCCCO
298.15 K, 101 kPa
Conditions	viscosity [mPa·s]
x1 = 0.0754	3.104 ± 0.14
x1 = 0.155	3.016 ± 0.14
x1 = 0.2392	2.918 ± 0.13
x1 = 0.3285	2.801 ± 0.13
x1 = 0.4232	2.657 ± 0.12
x1 = 0.524	2.498 ± 0.12
x1 = 0.6313	2.31 ± 0.11
x1 = 0.7459	2.102 ± 0.099
x1 = 0.8685	1.898 ± 0.09

O=N[O-].[Na+] + O
viscosity [mPa·s]
Conditions	x1 = 0.0182	x1 = 0.0368	x1 = 0.0558	x1 = 0.0753	x1 = 0.0989	x2 = 0.85	x2 = 0.87	x2 = 0.89	x2 = 0.92	x2 = 0.94
293.15 K, 101.33 kPa	–	–	–	–	–	2.834 ± 0.12	2.248 ± 0.097	1.903 ± 0.081	1.494 ± 0.06	1.374 ± 0.054
298.15 K, 101 kPa	0.97 ± 0.02	1.09 ± 0.02	1.24 ± 0.03	1.43 ± 0.03	1.73 ± 0.04	–	–	–	–	–
313.15 K, 101 kPa	0.72 ± 0.02	0.82 ± 0.02	0.93 ± 0.02	1.05 ± 0.02	1.26 ± 0.03	–	–	–	–	–

CCC(O)CC + Cc1ccccc1
viscosity [mPa·s], 101 kPa
Conditions	x1 = 0.1	x1 = 0.1999	x1 = 0.2999	x1 = 0.4	x1 = 0.4999	x1 = 0.6	x1 = 0.6999	x1 = 0.8	x1 = 0.9001
303.15 K	0.5369 ± 0.019	0.57 ± 0.02	0.6172 ± 0.022	0.6865 ± 0.024	0.7794 ± 0.026	0.9264 ± 0.031	1.142 ± 0.037	1.52 ± 0.048	2.12 ± 0.066
308.15 K	0.5072 ± 0.018	0.5352 ± 0.019	0.5765 ± 0.02	0.6364 ± 0.022	0.7145 ± 0.025	0.8369 ± 0.028	1.015 ± 0.033	1.313 ± 0.042	1.767 ± 0.056
313.15 K	0.4793 ± 0.018	0.5027 ± 0.018	0.5395 ± 0.019	0.5918 ± 0.021	0.658 ± 0.023	0.7604 ± 0.026	0.9062 ± 0.03	1.147 ± 0.037	1.493 ± 0.048
318.15 K	0.4555 ± 0.017	0.4739 ± 0.017	0.5062 ± 0.018	0.5515 ± 0.02	0.6092 ± 0.022	0.6951 ± 0.024	0.8461 ± 0.029	1.013 ± 0.034	1.285 ± 0.042
323.15 K	0.433 ± 0.016	0.4499 ± 0.017	0.4765 ± 0.018	0.5154 ± 0.019	0.5649 ± 0.02	0.6384 ± 0.022	0.7404 ± 0.025	0.9004 ± 0.03	1.112 ± 0.036

C1COCO1 + COCCO
298.15 K, 101 kPa
Conditions	viscosity [mPa·s]
x1 = 0.1024	1.345 ± 0.01
x1 = 0.2043	1.171 ± 0.0093
x1 = 0.3057	1.032 ± 0.0083
x1 = 0.4065	0.9197 ± 0.0075
x1 = 0.5067	0.8293 ± 0.0068
x1 = 0.6064	0.7564 ± 0.0063
x1 = 0.7056	0.6979 ± 0.0059
x1 = 0.8043	0.6517 ± 0.0056
x1 = 0.9024	0.6155 ± 0.0053

C1COCO1 + CC(C)(C)O
303.15 K, 101 kPa
Conditions	viscosity [mPa·s]
x1 = 0.1001	1.967 ± 0.024
x1 = 0.2001	1.468 ± 0.022
x1 = 0.3001	1.102 ± 0.021
x1 = 0.4001	0.8793 ± 0.021
x1 = 0.5001	0.7657 ± 0.021
x1 = 0.6001	0.6755 ± 0.02
x1 = 0.7001	0.6067 ± 0.02
x1 = 0.8001	0.5731 ± 0.02
x1 = 0.9001	0.566 ± 0.02
